Data as given in the NIST ThermoML archive (doi:10.1016/j.fluid.2017.12.010).
± gives the expanded uncertainty stated by the source.

Assay: xn = mol fraction of the nth substance listed
Conditions: Liquid, Vibrating tube method

CCCCCCCCCCCC [dodecane] + CCCCCCCCCC
Conditions | mass density [kg/m3]
323.11 K, 10000 kPa, x2 = 0.4436 | 728 ± 3
323.11 K, 20000 kPa, x2 = 0.4436 | 735 ± 3
323.11 K, 30000 kPa, x2 = 0.4436 | 742 ± 3
323.12 K, 40000 kPa, x2 = 0.4436 | 749 ± 3
323.12 K, 60000 kPa, x2 = 0.4436 | 761 ± 3
323.12 K, 80000 kPa, x2 = 0.4436 | 771 ± 3
323.13 K, 100000 kPa, x2 = 0.4436 | 781 ± 3
323.21 K, 100 kPa, x2 = 0.6433 | 715 ± 3
323.21 K, 1000 kPa, x2 = 0.6433 | 716 ± 3
323.21 K, 5000 kPa, x2 = 0.6433 | 720 ± 3
323.21 K, 10000 kPa, x2 = 0.6433 | 724 ± 3
323.21 K, 20000 kPa, x2 = 0.6433 | 732 ± 3
323.22 K, 30000 kPa, x2 = 0.6433 | 739 ± 3
323.22 K, 40000 kPa, x2 = 0.6433 | 746 ± 3
323.22 K, 60000 kPa, x2 = 0.6433 | 757 ± 3
323.22 K, 80000 kPa, x2 = 0.6433 | 768 ± 3
323.22 K, 100000 kPa, x2 = 0.6433 | 777 ± 3
323.23 K, 5000 kPa, x2 = 0.7841 | 717 ± 3
323.24 K, 100 kPa, x2 = 0.7841 | 712 ± 3
323.24 K, 1000 kPa, x2 = 0.7841 | 713 ± 3
323.24 K, 10000 kPa, x2 = 0.7841 | 721 ± 3
323.24 K, 20000 kPa, x2 = 0.7841 | 729 ± 3
323.24 K, 30000 kPa, x2 = 0.7841 | 736 ± 3
323.24 K, 40000 kPa, x2 = 0.7841 | 743 ± 3
323.24 K, 60000 kPa, x2 = 0.7841 | 755 ± 3
323.24 K, 80000 kPa, x2 = 0.7841 | 765 ± 3
323.24 K, 99990 kPa, x2 = 0.7841 | 775 ± 3
332.74 K, 100 kPa, x2 = 0 | 720 ± 3
332.74 K, 1000 kPa, x2 = 0 | 721 ± 3
332.74 K, 5000 kPa, x2 = 0 | 725 ± 3
332.74 K, 10000 kPa, x2 = 0 | 729 ± 3
332.74 K, 20000 kPa, x2 = 0 | 737 ± 3
332.74 K, 30000 kPa, x2 = 0 | 744 ± 3
332.74 K, 40000 kPa, x2 = 0 | 750 ± 3
332.74 K, 50000 kPa, x2 = 0 | 757 ± 3
332.74 K, 60000 kPa, x2 = 0 | 762 ± 3
332.74 K, 70000 kPa, x2 = 0 | 768 ± 3
332.74 K, 80000 kPa, x2 = 0 | 773 ± 3
332.74 K, 90000 kPa, x2 = 0 | 778 ± 3
332.75 K, 100000 kPa, x2 = 0 | 782 ± 3
332.97 K, 100 kPa, x2 = 0.4436 | 712 ± 3
332.98 K, 1000 kPa, x2 = 0.4436 | 713 ± 3
332.99 K, 5000 kPa, x2 = 0.4436 | 717 ± 3
332.99 K, 10000 kPa, x2 = 0.4436 | 721 ± 3
332.99 K, 20000 kPa, x2 = 0.4436 | 729 ± 3
333 K, 100 kPa, x2 = 0.2297 | 716 ± 3
333 K, 1000 kPa, x2 = 0.2297 | 717 ± 3
333 K, 5000 kPa, x2 = 0.2297 | 720 ± 3
333 K, 30000 kPa, x2 = 0.4436 | 736 ± 3
333 K, 40000 kPa, x2 = 0.4436 | 743 ± 3
333.01 K, 10000 kPa, x2 = 0.2297 | 725 ± 3
333.01 K, 20000 kPa, x2 = 0.2297 | 733 ± 3
333.01 K, 60000 kPa, x2 = 0.4436 | 755 ± 3
333.01 K, 80000 kPa, x2 = 0.4436 | 766 ± 3
333.01 K, 100000 kPa, x2 = 0.4436 | 776 ± 3
333.02 K, 30000 kPa, x2 = 0.2297 | 740 ± 3
333.02 K, 40000 kPa, x2 = 0.2297 | 747 ± 3
333.02 K, 60000 kPa, x2 = 0.2297 | 758 ± 3
333.03 K, 80000 kPa, x2 = 0.2297 | 769 ± 3
333.03 K, 100000 kPa, x2 = 0.2297 | 779 ± 3
333.06 K, 100 kPa, x2 = 0.7841 | 705 ± 3
333.07 K, 1000 kPa, x2 = 0.7841 | 706 ± 3
333.07 K, 40000 kPa, x2 = 0.7841 | 737 ± 3
333.08 K, 5000 kPa, x2 = 0.7841 | 710 ± 3
333.08 K, 10000 kPa, x2 = 0.7841 | 714 ± 3
333.08 K, 20000 kPa, x2 = 0.7841 | 723 ± 3
333.08 K, 30000 kPa, x2 = 0.7841 | 730 ± 3
333.08 K, 60000 kPa, x2 = 0.7841 | 749 ± 3
333.08 K, 80000 kPa, x2 = 0.7841 | 760 ± 3
333.08 K, 100000 kPa, x2 = 0.7841 | 770 ± 3
333.09 K, 100 kPa, x2 = 0.6433 | 708 ± 3
333.09 K, 1000 kPa, x2 = 0.6433 | 709 ± 3
333.09 K, 5000 kPa, x2 = 0.6433 | 713 ± 3
333.09 K, 10000 kPa, x2 = 0.6433 | 717 ± 3
333.09 K, 30000 kPa, x2 = 0.6433 | 733 ± 3
333.1 K, 20000 kPa, x2 = 0.6433 | 725 ± 3
333.1 K, 40000 kPa, x2 = 0.6433 | 740 ± 3
333.1 K, 60000 kPa, x2 = 0.6433 | 752 ± 3
333.1 K, 80000 kPa, x2 = 0.6433 | 763 ± 3
333.1 K, 100000 kPa, x2 = 0.6433 | 772 ± 3
342.67 K, 100 kPa, x2 = 0 | 713 ± 3
342.67 K, 1000 kPa, x2 = 0 | 714 ± 3
342.67 K, 5000 kPa, x2 = 0 | 718 ± 3
342.67 K, 10000 kPa, x2 = 0 | 722 ± 3
342.67 K, 20000 kPa, x2 = 0 | 731 ± 3
342.67 K, 30000 kPa, x2 = 0 | 738 ± 3
342.67 K, 40000 kPa, x2 = 0 | 745 ± 3
342.67 K, 50000 kPa, x2 = 0 | 751 ± 3
342.67 K, 60000 kPa, x2 = 0 | 757 ± 3
342.67 K, 69990 kPa, x2 = 0 | 763 ± 3
342.67 K, 80000 kPa, x2 = 0 | 768 ± 3
342.67 K, 90000 kPa, x2 = 0 | 773 ± 3
342.67 K, 100000 kPa, x2 = 0 | 778 ± 3
342.92 K, 100 kPa, x2 = 0.2297 | 709 ± 3
342.92 K, 100 kPa, x2 = 0.4436 | 705 ± 3
342.92 K, 1000 kPa, x2 = 0.2297 | 710 ± 3
342.92 K, 1000 kPa, x2 = 0.4436 | 706 ± 3
342.92 K, 5000 kPa, x2 = 0.2297 | 714 ± 3
342.92 K, 5000 kPa, x2 = 0.4436 | 710 ± 3
342.92 K, 10000 kPa, x2 = 0.2297 | 718 ± 3
342.92 K, 10000 kPa, x2 = 0.4436 | 714 ± 3
342.92 K, 20000 kPa, x2 = 0.2297 | 727 ± 3
342.93 K, 100 kPa, x2 = 0.6433 | 701 ± 3
342.93 K, 1000 kPa, x2 = 0.6433 | 702 ± 3
342.93 K, 20000 kPa, x2 = 0.4436 | 723 ± 3
342.93 K, 30000 kPa, x2 = 0.2297 | 734 ± 3
342.93 K, 30000 kPa, x2 = 0.4436 | 731 ± 3
342.93 K, 40000 kPa, x2 = 0.2297 | 741 ± 3
342.93 K, 40000 kPa, x2 = 0.4436 | 738 ± 3
342.93 K, 60000 kPa, x2 = 0.2297 | 753 ± 3
342.93 K, 60000 kPa, x2 = 0.4436 | 750 ± 3
342.93 K, 80000 kPa, x2 = 0.4436 | 761 ± 3
342.93 K, 100000 kPa, x2 = 0.4436 | 771 ± 3
342.94 K, 5000 kPa, x2 = 0.6433 | 706 ± 3
342.94 K, 10000 kPa, x2 = 0.6433 | 710 ± 3
342.94 K, 20000 kPa, x2 = 0.6433 | 719 ± 3
342.94 K, 30000 kPa, x2 = 0.6433 | 727 ± 3
342.94 K, 40000 kPa, x2 = 0.6433 | 734 ± 3
342.94 K, 60000 kPa, x2 = 0.6433 | 747 ± 3
